From US5116858A, “4-imidazoline derivatives” (Mitsubishi Kasei Corporation, priority 1989, dated 1992)

Tests used:
[1] = background, Iyakuhin Kenkyu 16, 1 (1985); cited from earlier work
[2] = test system: peroxidized lipid in rat brain homogenate; assay: Lipoperoxidation inhibitory activity in brain homogenate (TBA method); type: biochemical, Wistar male rats; details: 30 minutes at 37° C., final conc. 0.3-100 μM, read-out: Anti-lipoperoxidation Activity IC50
Description: Brain homogenate was prepared using Wistar male rats in accordance with the following procedure. […] A polyethylene tube was inserted into the aorta through the left ventricle, and fixed. Brain perfusion was conducted using ice-cooled 50 mM phosphate buffered saline (PBS), pH 7.4, through the tube, and whole brain was extracted. After removal of the cerebellum, the cerebrum was weighed while wet and homogenated by a Teflon homogenizer under ice-cooling, after addition of nine-fold by weight of PBS. The resultant homogenate was centrifuged at 4° C. (2200 r.p.m., 10 minutes), and an aliquot of the supernatant (0.3 ml) was placed in a light-resistant test tube with ground stopper and used for the following test.
To the brain homogenate obtained above were added PBS (0.6 ml) and an ethanol solution (10 μl) containing a predetermined amount of a test compound. Thus, each of the ethanol solutions was prepared so that the final concentration of the compound was 0.3-100 μM. The mixture was allowed to warm for 30 minutes at 37° C. (external bath temperature). […] (2600 r.p.m., 10 minutes). The resultant supernatant was used in the following quantitative analysis.
The aqueous mixture was heated in a boiling-water bath for 60 minutes and cooled rapidly. Distilled water (1.0 ml) and a mixture of pyridine and butanol (1:15) (5.0 ml) were added to the cooled mixture, and the latter was shaken for 30 seconds and centrifuged (3000 r.p.m., 10 minutes). The supernatant was used as a test sample for quantitative analysis of peroxidized lipid as mentioned below.

[3] = test system: mice; assay: Passive avoidance response test (memory-improving activity, cycloheximide-treated mice); type: in vivo; details: Mus musculus; oral, 15 mice per group, cycloheximide 120 mg/kg s.c., latent time; read-out: Memory-Improving Activity, Minimum Effective Dose
Description: Passive avoidance response test was conducted in mice (15 animals per group) using light-dark differential apparatus of step-down type. The apparatus consisted of a dark room made of black and rigid vinylidene chloride resin [30 cm (depth)×30 cm (width)×31 cm (height)] and a light room, as an adjacent room, made of transparent rigid vinylidene chloride resin. The floor of the light room was set 2 cm higher than the grid surface of the dark room (step down type), and there was a guillotine door between the rooms. The animals were placed in the apparatus and acclimatized before test, and latent time for moving from the light room to the dark room was determined.
The acclimatized animals subcutaneously received 120 mg/kg of cycloheximide (Sigma) dissolved in physiological saline. After 30 minutes of the administration, the animals were placed in the light room. Immediatly after the movement of the animals to the dark room, electric current was applied on the grid (0.5 mA, 3 seconds), which gave the animals "aquired behavior". After 24 hours of the establishment of the aquired behavior, a test compound suspended in 1% tragacanth was administered orally to the animals, which were then returned to the light room. Control animals received only 1% tragacanth. The latent time until an individual animal started to move to the dark room was determined.

[4] = Acute toxicity, oral; details: rat, in vivo, SD rats, seven-day observation
Description: Compounds of the invention suspended in 1% tragacanth was orally administered to SD rats (both male and female) and mortality (LD50) was determined after seven-day observation.

[5] = test system: cytotoxicities caused by active oxygen species; details: background; cited from earlier work

## CCN(CC)Cc1nccn1-c1ccc([N+](=O)[O-])cc1C(=O)c1ccccc1Cl [nizofenone]
[1]
  inhibitory action on CNS (in words): strong inhibitory action on CNS

## CCCCc1ccc(-c2c(C)[nH]c(=O)n2Cc2ccccc2)cc1 [Compound No. 137, 1-Benzyl-5-(4'-n-butylphenyl)-4-methyl-4-imidazolin-2-one]
[2]
  IC50: 12.4 µM
[3]
  minimal effective dose: 0.1 mg/kg
[4]
  LD50 at 168 h: > 1000 mg/kg

## Cc1[nH]c(=O)n(C)c1-c1ccc(C2CCCCC2)cc1 [compound 8]
[2]
  IC50: 10 µM
[3]
  minimal effective dose: 0.1 mg/kg
[4]
  LD50 at 168 h: > 1000 mg/kg

## Vitamin E
[5]
  activity as inhibitory agent for cytotoxicities (in words): very limited in their activities

## CCCCc1ccc(-c2c(C)[nH]c(=O)n2C)cc1 [Compound No. 2, 5-(4'-n-Butylphenyl)-1,4-dimethyl-4-imidazolin-2-one]
[2]
  IC50: 10.7 µM
[3]
  minimal effective dose: 0.1 mg/kg
[4]
  LD50 at 168 h: > 1000 mg/kg

## O=C1O[C@H]([C@@H](O)CO)C(O)=C1O [Vitamin C]
[5]
  activity as inhibitory agent for cytotoxicities (in words): very limited in their activities

## Cc1[nH]c(=O)n(C)c1-c1ccc(-c2ccccc2)cc1 [compound 16]
[2]
  IC50: 6.3 µM
[3]
  minimal effective dose: 0.3 mg/kg
[4]
  LD50 at 168 h: > 1000 mg/kg

## Cc1[nH]c(=O)n(C)c1-c1ccc(CC(C)C)cc1 [compound 5]
[2]
  IC50: 7.8 µM
[3]
  minimal effective dose: 30 mg/kg
